Among the data in ChEMBL document CHEMBL4665740, “Discovery of noscapine derivatives as potential β-tubulin inhibitors” (Bioorg Med Chem Lett, 2020) are Kd and Activity values, retold here.

Active and inactive are the calls of the source. The calls are words filed in the database; no cut-off is given here.

One experiment has as its target Tubulin beta. Kind of experiment: Binding affinity to CM5 chip immobilized beta tubulin (unknown origin) assessed as thermodynamic constants by SPR assay. Format: protein assay, Homo sapiens. (Surface plasmon resonance follows binding to a sensor surface in real time, without labels.)
In experiment [1] the test system is MCF7. Kind of experiment: Cytotoxicity against human MCF7 cells assessed as mortality at 20 uM after 48 hrs by MTT assay. Format: functional, cell-based. (Tetrazolium dyes change colour on reduction, which living cells bring about.)
Experiment [2] deals with MCF7. Kind of experiment: Cytotoxicity against human MCF7 cells assessed as mortality at 20 uM after 48 hrs by MTT assay relative to control. Format: functional.

In the case of `CCC(O)Cn1cc(CN2CCc3c(Br)c4c(c(OC)c3[C@@H]2[C@H]2OC(=O)c3c2ccc(OC)c3OC)OCO4)nn1` (some centres not stated), the equilibrium dissociation constant (Kd) at Tubulin beta worked out at 0.132 µM. Also, the outcome with MCF7 [1] was Active.
For `COc1ccc2c(c1OC)C(=O)O[C@@H]2[C@H]1c2c(cc3c(c2OC)OCO3)CCN1Cc1cn(-c2ccc(F)cc2)nn1` the same measures were 0.0215 µM and “Active”.
Consider `COc1ccc2c(c1OC)C(=O)O[C@@H]2[C@H]1c2c(cc3c(c2OC)OCO3)CCN1Cc1cn(Cc2ccccc2)nn1`, for which the Kd at Tubulin beta stood at 0.133 µM. Moreover, in the experiment with MCF7 [2], the Activity is 60%.
In the case of `COc1ccc(-n2cc(CN3CCc4c(Br)c5c(c(OC)c4[C@@H]3[C@H]3OC(=O)c4c3ccc(OC)c4OC)OCO5)nn2)cc1OC`, the result with MCF7 [1] was Active.
Turning to `CCC(O)Cn1cc(CN2CCc3cc4c(c(OC)c3[C@@H]2[C@H]2OC(=O)c3c2ccc(OC)c3OC)OCO4)nn1` (some centres not stated), the Activity in the experiment with MCF7 [2] was found to be 60%.
As to `COc1ccc2c(c1OC)C(=O)O[C@@H]2[C@H]1c2c(cc3c(c2OC)OCO3)CCN1Cc1cn(CC(C)(C)O)nn1`, in the experiment with MCF7 [1], the outcome was Active.
On to `COc1ccc2c(c1OC)C(=O)O[C@@H]2[C@H]1c2c(cc3c(c2OC)OCO3)CCN1C` [NOSCAPINE], for which the Kd on Tubulin beta came to 0.579 µM. In addition, the Activity in the experiment on MCF7 [2] turned out to be 20%.
With `COc1ccc2c(c1OC)C(=O)O[C@@H]2[C@H]1c2c(c(Br)c3c(c2OC)OCO3)CCN1Cc1cn(-c2ccc(F)cc2)nn1`, in the experiment on MCF7 [1], the result was Active.
In the case of `COc1ccc2c(c1OC)C(=O)O[C@@H]2[C@H]1c2c(c(Br)c3c(c2OC)OCO3)CCN1Cc1cn(-c2ccc(Br)cc2)nn1`, on Tubulin beta, the Kd came to 0.0369 µM. In addition, in the experiment on MCF7 [2], the Activity is recorded as 60%.
As to `COc1ccc2c(c1OC)C(=O)O[C@@H]2[C@H]1c2c(c(Br)c3c(c2OC)OCO3)CCN1Cc1cn(-c2ccc(Cl)c(Cl)c2)nn1`, the dissociation constant (Kd) on Tubulin beta came to 0.3743 µM. In addition, the outcome in the experiment on MCF7 [1] was Active.
Consider `COc1ccc2c(c1OC)C(=O)O[C@@H]2[C@H]1c2c(c(Br)c3c(c2OC)OCO3)CCN1Cc1cn(CC(C)(C)O)nn1`, for which, in the experiment on MCF7 [1], the result was Active.

One may read the Kd as the concentration at which binding is half-saturated.
